Target: T1, human CB2R (Homo sapiens, UniProt P34972)
T1 construct: host or cells: CHO cells
Assay: CB2R mediated modulation of cAMP synthesis
Format: cell-based
Conditions: found through the use of the above described assays (binding and cAMP); CHO cells expressing human CB2R, forskolin-stimulated cAMP
Outline: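 CHO cells expressing human CB2R were treated for 30 min at 37 °C with compound in buffer containing 1 mM IBMX, 0.25% BSA and 10 uM forskolin. cAMP was measured after lysis. EC50 is the concentration giving 50% inhibition of forskolin-stimulated cAMP, scaled to the level set by 1 uM CP55940, fitted by four-parameter logistic.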

T1 sequence (P34972 whole entry): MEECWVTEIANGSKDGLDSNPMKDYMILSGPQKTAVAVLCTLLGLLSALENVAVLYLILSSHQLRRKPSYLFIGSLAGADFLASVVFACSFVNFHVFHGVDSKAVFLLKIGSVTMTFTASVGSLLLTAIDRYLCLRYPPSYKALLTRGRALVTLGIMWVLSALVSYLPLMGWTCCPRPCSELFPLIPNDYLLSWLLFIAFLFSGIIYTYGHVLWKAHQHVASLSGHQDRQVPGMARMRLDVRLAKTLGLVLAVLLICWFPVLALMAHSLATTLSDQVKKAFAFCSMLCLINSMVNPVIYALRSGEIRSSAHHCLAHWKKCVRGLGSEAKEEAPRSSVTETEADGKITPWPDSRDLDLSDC

Compound	agonistic activity
CC(C)(C)c1cc(NC(=O)C(C)(C)S(=O)(=O)c2ccc(C(F)(F)F)nc2)[nH]n1 [N-(5-tert-Butyl-2H-pyrazol-3-yl)-2-methyl-2-(6-trifluoromethyl-pyridine-3-sulfonyl)-propionamide]	agonistic activity
Cc1nc(NC(=O)C(C)(C)S(=O)(=O)c2ccccc2F)sc1C(C)(C)C [N-(5-tert-Butyl-4-methyl-thiazol-2-yl)-2-(2-fluoro-benzenesulfonyl)-2-methyl-propionamide]	agonistic activity
Cc1nc(NC(=O)C(C)(C)S(=O)(=O)c2ccc(Cl)c(Cl)c2)sc1C(C)(C)C [N-(5-tert-Butyl-4-methyl-thiazol-2-yl)-2-(3,4-dichloro-benzenesulfonyl)-2-methyl-propionamide]	agonistic activity
Cc1nc(NC(=O)C(C)(C)S(=O)(=O)c2cccc(F)c2)sc1C(C)(C)C [N-(5-tert-Butyl-4-methyl-thiazol-2-yl)-2-(3-fluoro-benzenesulfonyl)-2-methyl-propionamide]	agonistic activity
Cc1nc(NC(=O)C(C)(C)S(=O)(=O)c2ccc(Cl)cc2)sc1C(C)(C)C [N-(5-tert-Butyl-4-methyl-thiazol-2-yl)-2-(4-chloro-benzenesulfonyl)-2-methyl-propionamide]	agonistic activity
COc1ccc(S(=O)(=O)C(C)(C)C(=O)Nc2nc(C)c(C(C)(C)C)s2)cc1 [N-(5-tert-Butyl-4-methyl-thiazol-2-yl)-2-(4-methoxy-benzenesulfonyl)-2-methyl-propionamide]	agonistic activity
Cc1nc(NC(=O)C(C)(C)S(=O)(=O)c2cccc(C(F)(F)F)c2)sc1C(C)(C)C [N-(5-tert-Butyl-4-methyl-thiazol-2-yl)-2-methyl-2-(3-trifluoromethyl-benzenesulfonyl)-propionamide]	agonistic activity
Cc1nc(NC(=O)C(C)(C)S(=O)(=O)c2ccc(C(F)(F)F)cc2)sc1C(C)(C)C [N-(5-tert-Butyl-4-methyl-thiazol-2-yl)-2-methyl-2-(4-trifluoromethyl-benzenesulfonyl)-propionamide]	agonistic activity
Cc1nc(NC(=O)C(C)(C)S(=O)(=O)c2ccc(C(F)(F)F)nc2)sc1C(C)(C)C [N-(5-tert-Butyl-4-methyl-thiazol-2-yl)-2-methyl-2-(6-trifluoromethyl-pyridine-3-sulfonyl)-propionamide]	agonistic activity
Cc1nc(NC(=O)C(C)(C)S(=O)(=O)c2ccc3ccccc3c2)sc1C(C)(C)C [N-(5-tert-Butyl-4-methyl-thiazol-2-yl)-2-methyl-2-(naphthalene-2-sulfonyl)-propionamide]	agonistic activity
Cc1ccccc1S(=O)(=O)C(C)(C)C(=O)Nc1nc(C)c(C(C)(C)C)s1 [N-(5-tert-Butyl-4-methyl-thiazol-2-yl)-2-methyl-2-(toluene-2-sulfonyl)-propionamide]	agonistic activity
Cc1ccc(S(=O)(=O)C(C)(C)C(=O)Nc2nc(C)c(C(C)(C)C)s2)cc1 [N-(5-tert-Butyl-4-methyl-thiazol-2-yl)-2-methyl-2-(toluene-4-sulfonyl)-propionamide]	agonistic activity
Cc1nc(NC(=O)C(C(C)C)S(=O)(=O)c2ccc(C(F)(F)F)cc2)sc1C(C)(C)C (centres unmarked) [N-(5-tert-Butyl-4-methyl-thiazol-2-yl)-3-methyl-2-(4-trifluoromethyl-benzenesulfonyl)-butyramide]	agonistic activity
CC(C)(C)c1nnc(NC(=O)C(C)(C)S(=O)(=O)c2ccc(Cl)cc2)s1 [N-(5-tert-Butyl-[1,3,4]thiadiazol-2-yl)-2-(4-chloro-benzenesulfonyl)-2-methyl-propionamide]	agonistic activity
CC1(C)CCc2cc(S(=O)(=O)C(C)(C)C(=O)Nc3cc(C(C)(C)C)on3)ccc2O1 [N-(5-tert-Butyl-isoxazol-3-yl)-2-(2,2-dimethyl-chroman-6-sulfonyl)-2-methyl-propionamide]	agonistic activity
CC(C)(C)c1cc(NC(=O)C(C)(C)S(=O)(=O)c2ccc(Cl)cc2Cl)no1 [N-(5-tert-Butyl-isoxazol-3-yl)-2-(2,4-dichloro-benzenesulfonyl)-2-methyl-propionamide]	agonistic activity
CC(C)(C)c1cc(NC(=O)C(C)(C)S(=O)(=O)c2ccc(F)cc2F)no1 [N-(5-tert-Butyl-isoxazol-3-yl)-2-(2,4-difluoro-benzenesulfonyl)-2-methyl-propionamide]	agonistic activity
CC(C)(C)c1cc(NC(=O)C(C)(C)S(=O)(=O)c2cc(F)ccc2F)no1 [N-(5-tert-Butyl-isoxazol-3-yl)-2-(2,5-difluoro-benzenesulfonyl)-2-methyl-propionamide]	agonistic activity
Cc1ccc(S(=O)(=O)C(C)(C)C(=O)Nc2cc(C(C)(C)C)on2)c(F)c1 [N-(5-tert-Butyl-isoxazol-3-yl)-2-(2-fluoro-4-methyl-benzenesulfonyl)-2-methyl-propionamide]	agonistic activity

Compound	agonistic activity
CC(C)(C)c1cc(NC(=O)C(C)(C)S(=O)(=O)c2ccccc2F)no1 [N-(5-tert-Butyl-isoxazol-3-yl)-2-(2-fluoro-benzenesulfonyl)-2-methyl-propionamide]	agonistic activity
CC(C)(C)c1cc(NC(=O)C(C)(C)S(=O)(=O)c2ccc(Cl)c(Cl)c2)no1 [N-(5-tert-Butyl-isoxazol-3-yl)-2-(3,4-dichloro-benzenesulfonyl)-2-methyl-propionamide]	agonistic activity
CC(C)(C)c1cc(NC(=O)C(C)(C)S(=O)(=O)c2ccc(F)c(Cl)c2)no1 [N-(5-tert-Butyl-isoxazol-3-yl)-2-(3-chloro-4-fluoro-benzenesulfonyl)-2-methyl-propionamide]	agonistic activity
CC(C)(C)c1cc(NC(=O)C(C)(C)S(=O)(=O)c2cccc(C#N)c2)no1 [N-(5-tert-Butyl-isoxazol-3-yl)-2-(3-cyano-benzenesulfonyl)-2-methyl-propionamide]	agonistic activity
COc1ccc(S(=O)(=O)C(C)(C)C(=O)Nc2cc(C(C)(C)C)on2)cc1F [N-(5-tert-Butyl-isoxazol-3-yl)-2-(3-fluoro-4-methoxy-benzenesulfonyl)-2-methyl-propionamide]	agonistic activity
Cc1ccc(S(=O)(=O)C(C)(C)C(=O)Nc2cc(C(C)(C)C)on2)cc1F [N-(5-tert-Butyl-isoxazol-3-yl)-2-(3-fluoro-4-methyl-benzenesulfonyl)-2-methyl-propionamide]	agonistic activity
CC(C)(C)c1cc(NC(=O)C(C)(C)S(=O)(=O)c2cccc(F)c2)no1 [N-(5-tert-Butyl-isoxazol-3-yl)-2-(3-fluoro-benzenesulfonyl)-2-methyl-propionamide]	agonistic activity
CC(C)(C)c1cc(NC(=O)C(C)(C)S(=O)(=O)c2cc(Cl)c(Cl)s2)no1 [N-(5-tert-Butyl-isoxazol-3-yl)-2-(4,5-dichloro-thiophene-2-sulfonyl)-2-methyl-propionamide]	agonistic activity
CC(C)(C)c1cc(NC(=O)C(C)(C)S(=O)(=O)c2ccc(Cl)cc2F)no1 [N-(5-tert-Butyl-isoxazol-3-yl)-2-(4-chloro-2-fluoro-benzenesulfonyl)-2-methyl-propionamide]	agonistic activity
CC(C)(C)c1cc(NC(=O)C(C)(C)S(=O)(=O)c2ccc(Cl)cc2)no1 [N-(5-tert-Butyl-isoxazol-3-yl)-2-(4-chloro-benzenesulfonyl)-2-methyl-propionamide]	agonistic activity
CC(C)(C)c1cc(NC(=O)C(C)(C)S(=O)(=O)c2ccc(C#N)cc2F)no1 [N-(5-tert-Butyl-isoxazol-3-yl)-2-(4-cyano-2-fluoro-benzenesulfonyl)-2-methyl-propionamide]	agonistic activity
CC(C)(C)c1cc(NC(=O)C(C)(C)S(=O)(=O)c2ccc(C#N)cc2)no1 [N-(5-tert-Butyl-isoxazol-3-yl)-2-(4-cyano-benzenesulfonyl)-2-methyl-propionamide]	agonistic activity
CC(C)(C)c1cc(NC(=O)C(C)(C)S(=O)(=O)c2ccc(F)cc2)no1 [N-(5-tert-Butyl-isoxazol-3-yl)-2-(4-fluoro-benzenesulfonyl)-2-methyl-propionamide]	agonistic activity
CC(C)c1ccc(S(=O)(=O)C(C)(C)C(=O)Nc2cc(C(C)(C)C)on2)cc1 [N-(5-tert-Butyl-isoxazol-3-yl)-2-(4-isopropyl-benzenesulfonyl)-2-methyl-propionamide]	agonistic activity
CC(C)(C)c1cc(NC(=O)C(C)(C)S(=O)(=O)c2ccc(S(C)(=O)=O)cc2)no1 [N-(5-tert-Butyl-isoxazol-3-yl)-2-(4-methanesulfonyl-benzenesulfonyl)-2-methyl-propionamide]	agonistic activity
COc1ccc(S(=O)(=O)C(C)(C)C(=O)Nc2cc(C(C)(C)C)on2)cc1 [N-(5-tert-Butyl-isoxazol-3-yl)-2-(4-methoxy-benzenesulfonyl)-2-methyl-propionamide]	agonistic activity
CC(C)(C)c1cc(NC(=O)CS(=O)(=O)c2ccc(C(F)(F)F)cc2)no1 [N-(5-tert-Butyl-isoxazol-3-yl)-2-(4-trifluoromethyl-benzenesulfonyl)-acetamide]	agonistic activity
CC(C(=O)Nc1cc(C(C)(C)C)on1)S(=O)(=O)c1ccc(C(F)(F)F)cc1 (centres unmarked) [N-(5-tert-Butyl-isoxazol-3-yl)-2-(4-trifluoromethyl-benzenesulfonyl)-propionamide]	agonistic activity
CC(C)(C)c1cc(NC(=O)C(C)(C)S(=O)(=O)c2ccc(Cl)s2)no1 [N-(5-tert-Butyl-isoxazol-3-yl)-2-(5-chloro-thiophene-2-sulfonyl)-2-methyl-propionamide]	agonistic activity
